Assay results as given in patent publication US11083724B2, “Rimegepant for CGRP related disorders” (Biohaven Pharmaceutical Holding Company Ltd., priority 2018, dated 2021).

Test system: subjects with Acute Migraines
Experiment: Study 302 (BHV3000-302, NCT03237845): Phase 3 double-blind placebo-controlled trial, rimegepant 75 mg tablet, acute treatment of migraine
Format: in vivo, human
Conditions: for Percent (%) difference of Patients Pain Free: Rimegepant versus Placebo: no rescue meds, Kaplan-Meier estimates; for Freedom from MBS at 2 hours / Pain Freedom (pain-free) at 2 hours: N = 537
Experimental: Clinical Trial—BHV3000-302: Phase 3: Double-Blind, Randomized, Placebo-Controlled, Safety and Efficacy Trial of BHV-3000 (Rimegepant) for the Acute Treatment of Migraine (ClinicalTrials.gov Identifier: NCT03237845) A phase 3 clinical study was conducted with 1503 participants, as follows. The purpose of this study is to compare the efficacy of BHV-3000 (rimegepant) versus placebo in subjects with Acute Migraines Study Design • Study Type: Interventional (Clinical Trial) • Actual Enrollment: 1503 participants • Allocation: Randomized • Intervention Model: Parallel Assignment • Intervention Model Description: Double-blind to Sponsor, Investigator and Subject • Masking: Triple (Participant, Care Provider, Investigator) • Masking Description: Double-blind to Sponsor, Investigator and Subject • Primary Purpose: Treatment • Official Title: BHV3000-302: Phase 3: Double-Blind, Randomized, Placebo-Controlled, Safety and Efficacy Trial of BHV-3000 (Rimegepant) for the Acute Treatment of Migraine • Actual Study Start Date: Jul. 26, 2017 • Primary Completion Date: Jan. 25, 2018 • Study Completion Date: Jan. 31, 2018 Arms and Interventions Outcome Measures Primary Outcome Measures: • 1. Pain Freedom of rimegepant (75 mg tablet) compared with placebo in the acute treatment of migraine will be measured using the number of evaluable subjects that report no pain at 2 hours post-dose. [Time Frame: Two hours post dose] • Pain will be measured on a 4 point Likert scale (0=none, 1=mild, 2=moderate, 3=severe) • 2. Freedom from the most bothersome symptom (MBS) of rimegepant (75 mg tablet) compared with placebo will be measured using the number of evaluable subjects that report the absence of their MBS at 2 hours post-dose. [Time Frame: Two hours post dose] • The MBS (nausea, phonophobia or photophobia) will measured using a binary scale (0=absent, 1=present). Secondary Outcome Measures: • 1. […] [Time Frame: 2 hours-24 hours post-dose] • Sustained Pain Freedom as measured by a 4 point numeric rating scale (None, Mild, Moderate, Severe) • 2. Rimegepant (75 mg tablet) compared to placebo by tabulating the number of subjects that report the absence of photophobia at 2 hours post-dose in the subset of subjects that reported the presence of photophobia at headache baseline. [Time Frame: 2 hours post-dose] • Freedom from Photophobia • 3. Rimegepant (75 mg tablet) compared to placebo by tabulating the number of subjects that report the absence of phonophobia at 2 hours post-dose in the subset of subjects that reported the presence of phonophobia at headache baseline. [Time Frame: 2 hours post-dose] • Freedom from Phonophobia • 4. To measure rimegepant (75 mg tablet) compared to placebo on Pain Relief, at 2 hours post-dose, that report a pain level of moderate or severe at baseline and then report a pain level of none or mild. [Time Frame: 2 hours post-dose] • Pain Relief as measured by a 4 point numeric rating scale (None, Mild, Moderate, Severe) • 5. Freedom from Nausea will by tabulating the number of subjects that report the absence of nausea at 2 hours post-dose in the subset of subjects that reported the presence of nausea at headache baseline. [Time Frame: 2 hours post-dose] • Freedom from Nausea • 6. To measure rimegepant (75 mg tablet) compared to placebo on the probability of requiring rescue medication will be assessed using the number of subjects that take rescue medication within […] administration of study medication (BHV3000 or placebo). [Time Frame: up to 24 hours post-dose] • Requiring Rescue Medication • 7. […] [Time Frame: 2 hours-48 hours post-dose] • Sustained Pain Freedom as measured by a 4 point numeric rating scale (None, Mild, Moderate, Severe) • 8. […] [Time Frame: 2 hours-24 hours post-dose] • Sustained Pain Relief as measured by a 4 point numeric rating scale (None, Mild, Moderate, Severe) • 9. […] [Time Frame: 2 hours-48 hours post-dose] • Sustained Pain Relief as measured by a 4 point numeric rating scale (None, Mild, Moderate, Severe) • 10. […]

[1] = Study 302, single 75 mg tablet, listed as rimegepant

N[C@@H]1c2cccnc2[C@H](OC(=O)N2CCC(n3c(=O)[nH]c4ncccc43)CC2)CC[C@H]1c1cccc(F)c1F [Rimegepant, [(5S,6S,9R)-5-amino-6-(2,3-difluorophenyl)-6,7,8,9-tetrahydro-5H-cyclohepta[b]pyridin-9-yl] 4-(2-oxo-3H-imidazo[4,5-b]pyridin-1-yl)piperidine-1-carboxylate]
SAEs related to the study drug (Study 302): No SAEs | bilirubin elevations greater than 2 times ULN (Study 302): no bilirubin elevations | transaminase level greater than 3 times ULN (Study 302): No subject | AE urinary tract infection (Study 302, 8/543): 1.5% | AE nausea (Study 302, 10/543): 1.8% | Serum ALT or AST levels greater than ULN (Study 302, 13/543): 2.4% | Percent (%) difference of Patients Pain Free: Rimegepant versus Placebo (Study 302, 2 hours post single dose 75 mg): 7% | Percent (%) difference of Patients Pain Free: Rimegepant versus Placebo (Study 302, 3 hours post single dose 75 mg): 13% | Percent (%) difference of Patients Pain Free: Rimegepant versus Placebo (Study 302, 4 hours post single dose 75 mg): 19% | Percent (%) difference of Patients Pain Free: Rimegepant versus Placebo (Study 302, 6 hours post single dose 75 mg): 22% | Percent (%) difference of Patients Pain Free: Rimegepant versus Placebo (Study 302, 8 hours post single dose 75 mg): 19% | functional disability: patients achieving normal function at 2 hours versus placebo (Study 302, P<0.0001): greater proportion | Serious AEs (SAEs), subjects (Study 302, back pain): 1 subject | Free from MBS at 2 hours, subjects [n/N] (Study 302, single 75 mg tablet): [202/537] | Nausea-free at 2 hours (Study 302, single 75 mg tablet): 48.1% | Nausea-free at 2 hours, subjects [n/N] (Study 302, single 75 mg tablet): [171/355] | Pain relief at 2 hours (Study 302, single 75 mg tablet): 58.1% | Pain relief at 2 hours, subjects [n/N] (Study 302, single 75 mg tablet): [312/537] | Pain-free at 2 hours, subjects [n/N] (Study 302, single 75 mg tablet): [105/537] | Phonophobia-free at 2 hours (Study 302, single 75 mg tablet): 36.7% | Phonophobia-free at 2 hours, subjects [n/N] (Study 302, single 75 mg tablet): [133/362] | Photophobia-free at 2 hours (Study 302, single 75 mg tablet): 37.4% | Photophobia-free at 2 hours, subjects [n/N] (Study 302, single 75 mg tablet): [183/489] | Sustained pain relief, 2-24 hours (Study 302, single 75 mg tablet): 42.6% | Sustained pain relief, 2-24 hours, subjects [n/N] (Study 302, single 75 mg tablet): [229/537] | Freedom from MBS at 2 hours (Study 302, single 75 mg tablet): 37.6% | Pain Freedom (pain-free) at 2 hours (Study 302, single 75 mg tablet): 19.6% | Freedom from MBS at 2 hours [1]: 37.6% | Pain Freedom (pain-free) at 2 hours [1]: 19.6% | Pain relief at 2 hours [1]: 58.1% | sustained pain relief from 2 through 48 hours postdose versus placebo (Study 302, single dose, no rescue medication, P<0.0001): superiority versus placebo | sustained pain freedom from 2 through 48 hours postdose versus placebo (Study 302, single dose, no rescue medication, P=0.0181): superiority versus placebo
